According to ChEMBL document CHEMBL1201862, “PubChem BioAssay data set” (2004):
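Compound exposure: 48 hours, 5 concentrations, 96-well plates. GI50: concentration for 50% inhibition of growth.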 The source made the active and inactive calls. No stated cut-off is given here; in the data, active = GI50 up to about 1.1 µM and inactive = higher.

Legend:
Assay in all cases: DTP human tumour cell line panel, 48 h
RPMI-8226 = system: RPMI-8226
UO-31 = system: UO-31
HOP-62 = system: HOP-62
HOP-92 = system: HOP-92
SNB-19 = system: SNB-19
EKVX = system: EKVX
HCT-116 = system: HCT-116
NCI-H23 = system: NCI-H23
T47D = system: T47D
SW-620 = system: SW-620
LOX IMVI = system: LOX IMVI
U-251 = system: U-251
A498 = system: A498
NCI-H226 = system: NCI-H226
SF-539 = system: SF-539
OVCAR-4 = system: OVCAR-4
RXF 393 = system: RXF 393
NCI-H460 = system: NCI-H460
786-0 = system: 786-0
DU-145 = system: DU-145
KM12 = system: KM12
PC-3 = system: PC-3
SN12C = system: SN12C
OVCAR-3 = system: OVCAR-3
SF-295 = system: SF-295
UACC-62 = system: UACC-62
SK-OV-3 = system: SK-OV-3
HCT-15 = system: HCT-15
SNB-75 = system: SNB-75
TK-10 = system: TK-10
A549 = system: A549
HCC 2998 = system: HCC 2998
M14 = system: M14
ACHN = system: ACHN
K562 = system: K562
SK-MEL-5 = system: SK-MEL-5
MDA-MB-231 = system: MDA-MB-231
CAKI-1 = system: CAKI-1
MOLT-4 = system: MOLT-4
HT-29 = system: HT-29
MCF7 = system: MCF7
OVCAR-5 = system: OVCAR-5
SK-MEL-2 = system: SK-MEL-2
CCRF-CEM = system: CCRF-CEM
SF-268 = system: SF-268
UACC-257 = system: UACC-257
Hs-578T = system: Hs-578T
OVCAR-8 = system: OVCAR-8
IGROV-1 = system: IGROV-1
COLO 205 = system: COLO 205
SK-MEL-28 = system: SK-MEL-28
BT-549 = system: BT-549
NCI-H522 = system: NCI-H522
MDA-MB-435 = system: MDA-MB-435
NCI/ADR-RES = system: NCI/ADR-RES
SR = system: SR
MDA-N = system: MDA-N

COc1ccc(OC)c(C(Cc2ccnc3ccccc23)Cc2ccnc3ccccc23)c1
GI50 (RPMI-8226): 5.18 µM (inactive) | GI50 (UO-31): 6.68 µM (inactive) | GI50 (HOP-62): > 10 µM (inactive) | GI50 (HOP-92): 4.09 µM (inactive) | GI50 (SNB-19): > 10 µM (inactive) | GI50 (EKVX): 5.15 µM (inactive) | GI50 (HCT-116): 0.857 µM (active) | GI50 (NCI-H23): > 10 µM (inactive) | GI50 (T47D): 6.25 µM (inactive) | GI50 (SW-620): > 10 µM (inactive) | GI50 (LOX IMVI): 5.36 µM (inactive) | GI50 (U-251): > 10 µM (inactive) | GI50 (A498): > 10 µM (inactive) | GI50 (NCI-H226): 9.57 µM (inactive) | GI50 (SF-539): > 10 µM (inactive) | GI50 (OVCAR-4): 6.11 µM (inactive) | GI50 (RXF 393): > 10 µM (inactive) | GI50 (NCI-H460): 5.47 µM (inactive) | GI50 (786-0): > 10 µM (inactive) | GI50 (DU-145): > 10 µM (inactive) | GI50 (KM12): 7.29 µM (inactive) | GI50 (PC-3): 5.28 µM (inactive) | GI50 (SN12C): > 10 µM (inactive) | GI50 (OVCAR-3): > 10 µM (inactive) | GI50 (SF-295): 6.71 µM (inactive) | GI50 (UACC-62): > 10 µM (inactive) | GI50 (SK-OV-3): > 10 µM (inactive) | GI50 (HCT-15): 6.44 µM | GI50 (SNB-75): 6.11 µM (inactive) | GI50 (TK-10): > 10 µM (inactive) | GI50 (A549): > 10 µM (inactive) | GI50 (HCC 2998): > 10 µM (inactive) | GI50 (M14): > 10 µM (inactive) | GI50 (ACHN): > 10 µM (inactive) | GI50 (K562): 4.53 µM (inactive) | GI50 (SK-MEL-5): 3.66 µM (inactive) | GI50 (MDA-MB-231): > 10 µM (inactive) | GI50 (CAKI-1): > 10 µM (inactive) | GI50 (MOLT-4): 5.79 µM (inactive) | GI50 (HT-29): 6.5 µM (inactive) | GI50 (MCF7): 4.93 µM (inactive) | GI50 (OVCAR-5): > 10 µM (inactive) | GI50 (SK-MEL-2): 9.73 µM (inactive) | GI50 (CCRF-CEM): 8.57 µM (inactive) | GI50 (SF-268): > 10 µM (inactive) | GI50 (UACC-257): > 10 µM (inactive) | GI50 (Hs-578T): 8.63 µM (inactive) | GI50 (OVCAR-8): > 10 µM (inactive) | GI50 (IGROV-1): > 10 µM (inactive) | GI50 (COLO 205): 8.04 µM (inactive) | GI50 (SK-MEL-28): > 10 µM (inactive) | GI50 (BT-549): 4.09 µM (inactive) | GI50 (NCI-H522): 6.32 µM (inactive) | GI50 (MDA-MB-435): 0.56 µM (active) | GI50 (NCI/ADR-RES): 8.39 µM (inactive)

COc1ccc2[nH]c3c(O)c(-c4c(C)cc5c([nH]c6ccc(OC)cc65)c4O)c(C)cc3c2c1
GI50 (HOP-62): 4.83 µM (inactive) | GI50 (HOP-92): 4.51 µM (inactive) | GI50 (SNB-19): 4.69 µM (inactive) | GI50 (EKVX): 4.09 µM (inactive) | GI50 (HCT-116): 4.22 µM (inactive) | GI50 (T47D): 9.86 µM (inactive) | GI50 (SW-620): 4.41 µM (inactive) | GI50 (LOX IMVI): 4.38 µM (inactive) | GI50 (U-251): 4.31 µM (inactive) | GI50 (NCI-H226): 4.38 µM (inactive) | GI50 (SF-539): 4.86 µM (inactive) | GI50 (OVCAR-4): 3.88 µM (inactive) | GI50 (RXF 393): 4.84 µM (inactive) | GI50 (NCI-H460): 3.98 µM (inactive) | GI50 (786-0): 4.91 µM (inactive) | GI50 (DU-145): 4.43 µM (inactive) | GI50 (KM12): 4.24 µM (inactive) | GI50 (PC-3): 4.27 µM (inactive) | GI50 (SN12C): 4.43 µM (inactive) | GI50 (OVCAR-3): 4.35 µM (inactive) | GI50 (SNB-75): 3.85 µM (inactive) | GI50 (TK-10): 4.45 µM (inactive) | GI50 (A549): 4.05 µM (inactive) | GI50 (HCC 2998): 3.7 µM (inactive) | GI50 (M14): 4.13 µM (inactive) | GI50 (ACHN): 4.66 µM (inactive) | GI50 (MDA-MB-231): 5.74 µM (inactive) | GI50 (SK-MEL-2): 5.41 µM (inactive) | GI50 (SF-268): 4.48 µM (inactive) | GI50 (UACC-257): 4.24 µM (inactive) | GI50 (Hs-578T): 6.28 µM (inactive) | GI50 (OVCAR-8): 4.5 µM (inactive) | GI50 (IGROV-1): 4.34 µM (inactive) | GI50 (SK-MEL-28): 5.55 µM (inactive) | GI50 (BT-549): 4.62 µM (inactive) | GI50 (NCI-H522): 4.93 µM (inactive) | GI50 (NCI/ADR-RES): 4.24 µM (inactive)

COc1cc(C(=O)N(C(=O)N2CCCCC2)c2ccccc2)cc(OC)c1OC
GI50 (RPMI-8226): 89.1 µM (inactive) | GI50 (UO-31): > 100 µM (inactive) | GI50 (HOP-62): > 100 µM (inactive) | GI50 (HOP-92): > 100 µM (inactive) | GI50 (SNB-19): > 100 µM (inactive) | GI50 (EKVX): > 100 µM (inactive) | GI50 (HCT-116): > 100 µM (inactive) | GI50 (NCI-H23): > 100 µM (inactive) | GI50 (T47D): > 100 µM (inactive) | GI50 (SW-620): > 100 µM (inactive) | GI50 (LOX IMVI): > 100 µM (inactive) | GI50 (U-251): > 100 µM (inactive) | GI50 (A498): > 100 µM (inactive) | GI50 (NCI-H226): > 100 µM (inactive) | GI50 (SF-539): > 100 µM (inactive) | GI50 (NCI-H460): > 100 µM (inactive) | GI50 (786-0): > 100 µM (inactive) | GI50 (DU-145): > 100 µM (inactive) | GI50 (KM12): > 100 µM (inactive) | GI50 (PC-3): > 100 µM (inactive) | GI50 (SN12C): > 100 µM (inactive) | GI50 (OVCAR-3): > 100 µM (inactive) | GI50 (SF-295): > 100 µM (inactive) | GI50 (UACC-62): > 100 µM (inactive) | GI50 (SK-OV-3): > 100 µM (inactive) | GI50 (SR): > 100 µM (inactive) | GI50 (HCT-15): > 100 µM | GI50 (SNB-75): > 100 µM (inactive) | GI50 (A549): > 100 µM (inactive) | GI50 (HCC 2998): > 100 µM (inactive) | GI50 (M14): > 100 µM (inactive) | GI50 (ACHN): > 100 µM (inactive) | GI50 (K562): > 100 µM (inactive) | GI50 (SK-MEL-5): > 100 µM (inactive) | GI50 (MDA-MB-231): > 100 µM (inactive) | GI50 (CAKI-1): > 100 µM (inactive) | GI50 (MDA-N): > 100 µM (inactive) | GI50 (MOLT-4): > 100 µM (inactive) | GI50 (MCF7): > 100 µM (inactive) | GI50 (OVCAR-5): > 100 µM (inactive) | GI50 (SK-MEL-2): > 100 µM (inactive) | GI50 (CCRF-CEM): > 100 µM (inactive) | GI50 (UACC-257): > 100 µM (inactive) | GI50 (OVCAR-8): > 100 µM (inactive) | GI50 (IGROV-1): > 100 µM (inactive) | GI50 (COLO 205): > 100 µM (inactive) | GI50 (SK-MEL-28): > 100 µM (inactive) | GI50 (BT-549): > 100 µM (inactive) | GI50 (MDA-MB-435): > 100 µM (inactive) | GI50 (NCI/ADR-RES): > 100 µM (inactive)
